Paper PMC8706783 (Pharmaceutics, 2021)
Like-named read-outs stand apart in the source and are kept apart here.

Columns and labels:
UGT1A4 = target: T1, UGT1A4 (Homo sapiens, UniProt P22310); assay: Enzyme inhibition assay, UGT1A4
T1 sequence (P22310 29-534): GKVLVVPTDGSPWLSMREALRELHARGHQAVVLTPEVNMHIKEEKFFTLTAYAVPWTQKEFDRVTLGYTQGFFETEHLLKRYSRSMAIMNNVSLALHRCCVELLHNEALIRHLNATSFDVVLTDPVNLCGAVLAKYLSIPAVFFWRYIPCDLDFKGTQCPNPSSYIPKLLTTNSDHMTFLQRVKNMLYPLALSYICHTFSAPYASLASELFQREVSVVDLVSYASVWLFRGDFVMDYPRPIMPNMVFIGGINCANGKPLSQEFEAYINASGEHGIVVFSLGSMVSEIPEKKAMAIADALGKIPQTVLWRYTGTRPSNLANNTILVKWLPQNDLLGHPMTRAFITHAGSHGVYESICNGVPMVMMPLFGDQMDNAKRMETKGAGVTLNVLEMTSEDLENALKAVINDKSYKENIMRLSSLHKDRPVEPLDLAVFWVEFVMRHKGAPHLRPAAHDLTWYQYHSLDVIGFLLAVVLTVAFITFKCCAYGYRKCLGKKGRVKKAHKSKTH

UGT1A1 = target: T2, UGT1A1 (Homo sapiens, UniProt P22309); assay: Enzyme inhibition assay, UGT1A1; assay type: in vitro ADME; details: for IC50: HLM, UGT1A1 SN38 glucuronidation
T2 construct: from tissue
T2 sequence (P22309 26-533): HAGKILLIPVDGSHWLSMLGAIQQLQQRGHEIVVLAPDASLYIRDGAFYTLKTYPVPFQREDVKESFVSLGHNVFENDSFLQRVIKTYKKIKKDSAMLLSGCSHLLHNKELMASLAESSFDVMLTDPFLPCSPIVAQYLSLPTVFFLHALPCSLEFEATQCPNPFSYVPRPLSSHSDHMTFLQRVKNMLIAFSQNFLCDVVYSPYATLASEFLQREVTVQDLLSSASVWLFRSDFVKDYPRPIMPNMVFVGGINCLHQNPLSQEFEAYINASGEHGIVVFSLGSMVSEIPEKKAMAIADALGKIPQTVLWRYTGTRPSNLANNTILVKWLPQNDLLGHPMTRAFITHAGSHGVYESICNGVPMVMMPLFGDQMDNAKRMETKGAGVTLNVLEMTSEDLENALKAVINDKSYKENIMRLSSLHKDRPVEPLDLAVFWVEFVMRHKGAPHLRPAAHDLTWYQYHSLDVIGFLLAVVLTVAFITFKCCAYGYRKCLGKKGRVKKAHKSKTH

[1] = women, cited from earlier work; for Cmax: plasma, ref IPM 028
CYP1A2 = target: T3, CYP1A2 (Homo sapiens, UniProt P05177); assay: Enzyme inhibition assay, CYP1A2
T3 sequence (P05177 1-516): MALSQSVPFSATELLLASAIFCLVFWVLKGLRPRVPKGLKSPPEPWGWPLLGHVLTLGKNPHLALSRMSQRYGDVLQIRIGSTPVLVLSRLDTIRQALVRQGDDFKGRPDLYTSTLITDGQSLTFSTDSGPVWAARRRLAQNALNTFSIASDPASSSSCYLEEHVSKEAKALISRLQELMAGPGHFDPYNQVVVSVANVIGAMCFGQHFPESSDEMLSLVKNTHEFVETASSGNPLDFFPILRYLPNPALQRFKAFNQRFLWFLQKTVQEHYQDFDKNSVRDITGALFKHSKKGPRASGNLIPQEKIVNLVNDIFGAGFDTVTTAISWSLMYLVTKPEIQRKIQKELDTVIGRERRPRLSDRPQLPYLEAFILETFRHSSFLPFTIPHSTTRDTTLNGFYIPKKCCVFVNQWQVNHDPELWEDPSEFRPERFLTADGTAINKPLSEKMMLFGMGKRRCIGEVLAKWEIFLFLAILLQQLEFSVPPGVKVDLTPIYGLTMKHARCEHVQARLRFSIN

UGT1A9 = target: T4, UGT1A9 (Homo sapiens, UniProt O60656); assay: Enzyme inhibition assay, UGT1A9; assay type: in vitro ADME; set-up: from tissue; details: HLM; UGT1A9 mycophenolic acid glucuronidation
T4 sequence (O60656 26-530): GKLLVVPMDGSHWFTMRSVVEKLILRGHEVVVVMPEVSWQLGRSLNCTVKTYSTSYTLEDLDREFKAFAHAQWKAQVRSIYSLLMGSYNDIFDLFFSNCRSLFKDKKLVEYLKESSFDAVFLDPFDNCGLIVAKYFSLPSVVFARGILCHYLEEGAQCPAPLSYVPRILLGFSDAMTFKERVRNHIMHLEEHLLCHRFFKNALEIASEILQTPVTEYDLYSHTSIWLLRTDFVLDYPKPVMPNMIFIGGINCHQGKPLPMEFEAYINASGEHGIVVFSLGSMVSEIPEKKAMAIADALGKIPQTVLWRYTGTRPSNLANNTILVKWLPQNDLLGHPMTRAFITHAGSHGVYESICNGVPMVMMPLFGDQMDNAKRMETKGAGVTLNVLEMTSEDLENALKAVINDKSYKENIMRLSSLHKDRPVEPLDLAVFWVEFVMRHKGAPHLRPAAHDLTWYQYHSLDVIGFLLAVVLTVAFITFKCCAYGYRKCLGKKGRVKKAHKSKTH

UGT1A8 = target: T5, UGT1A8 (Homo sapiens, UniProt Q9HAW9); assay: Enzyme inhibition assay, UGT1A8
T5 sequence (Q9HAW9 26-530): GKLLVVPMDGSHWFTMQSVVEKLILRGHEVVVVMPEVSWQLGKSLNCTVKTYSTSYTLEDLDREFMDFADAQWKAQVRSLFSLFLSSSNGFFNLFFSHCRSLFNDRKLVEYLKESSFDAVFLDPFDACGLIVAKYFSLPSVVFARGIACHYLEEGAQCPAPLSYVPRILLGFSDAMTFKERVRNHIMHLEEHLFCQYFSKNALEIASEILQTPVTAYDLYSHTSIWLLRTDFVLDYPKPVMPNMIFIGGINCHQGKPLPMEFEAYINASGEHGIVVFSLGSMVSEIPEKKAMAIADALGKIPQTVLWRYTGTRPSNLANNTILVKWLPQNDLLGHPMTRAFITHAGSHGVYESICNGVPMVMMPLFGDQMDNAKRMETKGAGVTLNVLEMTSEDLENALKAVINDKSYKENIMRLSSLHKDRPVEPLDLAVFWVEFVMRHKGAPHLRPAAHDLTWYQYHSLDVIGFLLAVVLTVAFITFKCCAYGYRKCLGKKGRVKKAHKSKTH

Structure (SMILES) | IC50 (UGT1A4) [µM] | IC50 (UGT1A1; read-out: IC50) [µM] | increase in systemic exposure to DPV ([1]; concomitant use of DPV ring and MIC vaginal capsule compared to DPV ring alone) [%] | Cmax ([1]; after DPV ring administration alone) [ng/mL] | IC50 (CYP1A2) [µM] | IC50 (UGT1A9) [µM] | IC50 (UGT1A8) [µM] | IC50 (UGT1A1) | Emax at 15 min, 30 µM (UGT1A1; human, human liver microsomes, probe SN38 (0.5 µM), SN38 glucuronidation, read-out: maximum activation of SN38 glucuronidation) [%] | Cmax ([1]; after MIC vaginal capsule alone) [ng/mL] | IC50 (UGT1A8; Recombinant UGT1A8, 4-methylumbelliferone O-glucuronidation) | Emax at 45 min (UGT1A8; human, recombinant UGT1A8, probe 4-methylumbelliferone (2 µM), glucuronidation) [%]
Cc1cc(C)c(Nc2ccnc(Nc3ccc(C#N)cc3)n2)c(C)c1 [DPV, Dapivirine] | 9.45 | 5.2 | 20 | 0.462 ± 0.288 | 10.5 | > 30 | > 30 |  |  |  |  | 
Clc1ccc(COC(Cn2ccnc2)c2ccc(Cl)cc2Cl)c(Cl)c1 (stereo not drawn) [MIC, miconazole] | 26.5 |  |  |  | 5.11 | > 30 |  | Apparent activation with MIC | 607 | 7.61 ± 3.13 | Apparent activation with MIC | 173
